Values quoted from earlier work as cited in patent US5006329A, “Radioactive tagged compounds and method for the treatment of metastatic bone cancer” (priority 1989, dated 1991).

Key:
bone marrow = settings: after treatment of a patient; reported
bone cancer = settings: HMDP with Samarium-153 label
[1] = for high energy beta emissions: e.g.
malignant bone tissue = settings: tumor vs normal bone
metastatic bone cancer = settings: over 100 patients

Molecule	blood profile changes (bone marrow)	safety with respect to healthy bone marrow tissue (bone cancer)	effectiveness in treating the malignancy (bone cancer; preliminary results)	half-life (radioactive) [1]	high energy beta emissions [1]	accretion rate of tumor compared with normal bone (malignant bone tissue)	degree of malignancy (metastatic bone cancer)	dose of radioactivity to bone marrow (metastatic bone cancer)	pain (metastatic bone cancer)	effectiveness in treating the cancer (metastatic bone cancer; Dr. Ralph Robinson)
[153Sm] [Samarium-153]	blood profile changes occur	indeterminate	promising	two	600-700 KeV					
O=P([O-])([O-])CP(=O)(O)O.[Na+].[Na+] [MDP, disodium methylene-diphosphonate]						substantially higher than normal bone				
Strontium-89	blood profile changes occur				800 KeV		reduced	unacceptably high	reduced	acceptable
